Assay results taken from patent US20030216569A1, “Method of making HIV protease inhibitors” (priority 1993, published 2003).
Counter-ions that a name gives are not always drawn. Like-named read-outs stand apart in the source and are kept apart here.

Assays:
HIV-1 protease = HIV-1 protease (Human immunodeficiency virus type 1 group M subtype B, UniProt P04585); assay: Fluorescence HIV-1 Protease Inhibitor Assay (Pandex); type: biochemical; set-up: made in house; host or cells: E. coli K12 L507/pHP10D (NRRL B-18560)
Procedure: A. Preparation of Protease and Gag Fractions
Lyophils of E. coli K12 L507/pHP10D were obtained from the Northern Regional Research Laboratory, Peoria, Ill. 61604, under the accession number NRRL B-18560 (deposited Nov. 14, 1989). The lyophils were decanted into tubes containing 10 ml LB medium (10 g Bacto-tryptone, 5 g Bacto-yeast extract, and 10 g aqueous sodium chloride per liter; the pH was adjusted to 7.5 and incubated at 32° C. overnight).
A small portion of the overnight culture was placed on LB-agar (LB medium with 15 g/L Bacto-agar) plates containing 12.5 micrograms/ml tetracycline in a manner so as to obtain a single colony isolate of E. coli K12 L507/pHP10D. The single colony obtained was inoculated into 10 ml of LB medium containing 12.5 micrograms/ml tetracycline and incubated overnight at 32° C. with vigorous shaking. The 10 ml overnight culture was inoculated into LB medium containing 12.5 micrograms/ml tetracycline and incubated at 32° C. with vigorous shaking until the culture reached mid-log phase. […]
3. Preparation of Protease Fraction
A culture of E. coli K12 L507/pHP10D was grown to mid-log phase at 32° C. in LB media containing 12.5 micrograms/ml tetracycline. The cultivation temperature was quickly elevated to 40° C. to induce gene expression, and the cells were allowed to grow for 2.5 hours at this temperature before the culture was quickly chilled on ice. The cells were centrifuged and the cell pellet was resuspended in 20 ml of 50 mmol MES buffer (pH 6.0) containing 1 mmol EDTA, 1 mmol DTT, 1 mmol PMSF and 10% glycerol (“Buffer A”). Cells were lysed by sonication using a Fischer Model 300 Dismembrator and a microtip probe. Following centrifugation at 27,000×g, the supernatant was diluted to a total volume of 60 ml with Buffer A and loaded onto a 2.0×19 cm QAE-Sepharose column (1 ml/min, 4° C.), that had been equilibrated in Buffer A. The column was washed isocratically for 180 min and then eluted with a gradient eluent of […] aqueous sodium chloride in Buffer A over 120 min. Enzymatic activity was measured by HPLC using the synthetic peptide Ser-Gln-Asn-Tyr-Pro-Ile-Val as described in Margolin et al., Biochem. Biophys. Res. Commun., 167, 554-560 (1990); the production of the p1 peptide (Ser-Gln-Asn-Tyr) was measured.
The active fractions were combined, adjusted to […] 1.2M in ammonium sulfate, and applied to a 2.0×18 cm hexyl agarose column that had been equilibrated in Buffer A containing 1.2M ammonium sulfate. The sample was loaded at a flow rate of 1 ml/min at 4° C., washed with the equilibration buffer for 240 min (1 ml/min) and then eluted using a reverse linear gradient of 1.2-0M ammonium sulfate in Buffer A for 120 min at the same flow rate. The column was then washed isocratically in Buffer A for 120 min.
The active fractions were combined, concentrated to 10 ml using an Amicon stirred cell with a YM-10 membrane and then applied to a MonoS cation exchange column (1.0×10 cm) that had been equilibrated in Buffer A. The sample was loaded at a flow rate of 1 ml/min at 25° C. After washing isocratically for 30 min, the protease was eluted using a linear gradient of 0-0.45M aqueous sodium chloride in Buffer A over 40 min. The column was washed isocratically in Buffer A containing 0.45M aqueous sodium chloride for 30 minutes.
The active fractions were combined and concentrated to 200 microliters using an Amicon stirred cell and a YM-10 membrane and then the protease was applied to a Superose 6 size exclusion column equilibrated in Buffer A containing 0.1M aqueous sodium chloride.

[1] = test system: Viral SN123 infected CEM cells
[2] = Human immunodeficiency virus 1, CCRF-CEM, read-out: Whole cell IC50 nM
[3] = Human immunodeficiency virus 1, CCRF-CEM, read-out: Whole cell IC90 nM
[4] = value as run, 35B value of the same run in footnote or parentheses, read-out: Pandex IC50 ng/ml (converted)
[5] = Human immunodeficiency virus 1, CCRF-CEM, read-out: Whole cell IC50 nM, CEM cells, values in parentheses are 35B in same assay
[6] = Human immunodeficiency virus 1, CCRF-CEM, read-out: Whole cell IC90 nM, CEM cells, values in parentheses are 35B in same assay
[7] = normalized to positive control (=1.0), * = a calculated average, read-out: Fluorescence Assay IC50 in ng/mL (converted)

| Compound | IC50 (HIV-1 protease; [4]) [nM] | IC50 [1, 5] [nM] | IC90 [1, 6] [nM] | IC50 (HIV-1 protease; [7]) [nM] | also measured |
| --- | --- | --- | --- | --- | --- |
| Cc1c(O)cccc1C(=O)N[C@@H](CSc1ccccc1)[C@H](O)CN1C[C@H]2CCS[C@H]2C[C@H]1C(=O)NC(C)(C)C (relative stereo) [Example 74 I, [6S-(6R*, 3aS*, 7aR*, 2′S*, 3′S*)]-2-[2′-Hydroxy-3′-phenylthiomethyl-4′-aza-5′-oxo-5′-(2″-methyl-3″-hydroxyphenyl)pentyl]-octahydrothieno[3,2-c]pyridine-6-N-t-butyl carboxamide methanesulfonic acid salt] |  |  |  |  | IC50 (HIV-1 protease; Table 2, read-out: IC50 (Pandex)): 0.3 nM; IC50 [1, 2]: 4.06 nM; IC90 [1, 3]: 9.74 nM |
| Cc1c(OP(=O)(O)O)cccc1C(=O)N[C@@H](CSc1ccccc1)[C@H](O)CN1C[C@H]2CCCC[C@H]2C[C@H]1C(=O)NC(C)(C)C.Cl (relative stereo) [Example 80, [3S-(3R*, 4aR*, 8aR*, 2′S*, 3′S*)]-2-[2′-Hydroxy-3′-phenylthiomethyl-4′-aza-5′-oxo-5′-(2″-methyl-3″-Hydroxyphenyl)pentyl]-decahydroisoquinoline-3-N-t-butyl carboxamide 3″-Dihydrogen Phosphate Hydrochloride] | 5.85 | 8.99 | 27.9 |  | Pandex % at 22 (HIV-1 protease; at 22 (ng/ml), wrapped cell): 0.3% at |
| Cc1c(O)cccc1C(=O)N[C@@H](CSc1ccc(F)cc1)[C@H](O)CN1C[C@H]2CCCC[C@H]2C[C@H]1C(=O)NC(C)(C)C (relative stereo) [Example 92, [3S-(3R*, 4aR*, 8aR*, 2′S*, 3′R*)]-2-(2′-Hydroxy-3′-(4′″-fluoro)phenylthiomethyl-4′-aza-5′-oxo-5′-(2″-methyl-3″-hydroxyphenyl)pentyl]-decahydroisoquinoline-3-N-t-butyl carboxamide] | < 0.273 |  |  |  | IC50 [1, 2]: 2.01 nM; IC90 [1, 3]: 57 nM |
| Cc1c(F)cccc1C(=O)NC(Cc1ccccc1)C(O)CN1CC2CCCCC2CC1C(=O)NC(C)(C)C (stereo not drawn) [Example 7, [3S-(3R*,4aR*,8aR*,2′S*,3′R*)]-2-[2′-Hydroxy-3′-phenylmethyl-4′-aza-5′-oxo-5′-(2″-methyl-3″-fluorophenyl)pentyl] decahydroisoquinoline-3-N-t-butylcarboxamide] |  | 323 |  | 474 |  |
| Cc1c(O)cccc1C(=O)N[C@@H](CSc1ccccc1)[C@H](O)CN1CCN(Cc2cccnc2)C[C@H]1C(=O)NC(C)(C)C [Example 19] | 0.693 | 16.1 | 42 | 0.528 |  |
| Cc1ccccc1C(=O)NC(CSc1ccccc1)C(O)CN1CC2CCCCC2CC1C(=O)NC(C)(C)C (stereo not drawn) [Example 29, [3S-(3R*,4aR*,8aR*,2′S*,3′S*)]-2-[2′-Hydroxy-3′-phenylthiomethyl-4′-aza-5′-oxo-5′-(2″-methyl-phenyl)pentyl] decahydroisoquinoline-3-N-t-butylcarboxamide] | 3.62 | 1590 | 4460 | 3.08 |  |
| Cc1cnccc1C(=O)NC(CSc1ccccc1)C(O)CN1CC2CCCCC2CC1C(=O)NC(C)(C)C (stereo not drawn) [Example 30, [3S-(3R*,4aR*,8aR*,2′S*,3′S*)]-2-[2′-Hydroxy-3′-phenylthiomethyl-4′-aza-5′-oxo-5′-(3″-methyl-pyrid-4″-yl)phentyl] decahydroisoquinoline-3-N-t-butylcarboxamide] | 9.05 | 367 | 736 | 7.6 |  |
| CC(C)(C)NC(=O)C1CC2CCCCC2CN1CC(O)C(CSc1ccccc1)NC(=O)c1cccc2ncccc12 (stereo not drawn) [Example 31, [3S-(3R*,4aR*,8aR*,2′S*,3′S*)]-2-[2′-Hydroxy-3′-phenylthiomethyl-4′-aza-5′-oxo-5′-(quinolin-5″-yl)pentyl] decahydroisoquinoline-3-N-t-butylcarboxamide] | 5.94 | 430 | 884 | 2.04 |  |
| CC(C)(C)NC(=O)C1CC2CCCCC2CN1CC(O)C(CSc1ccccc1)NC(=O)c1cccc2c1CCCN2 (stereo not drawn) [Example 32, [3S-(3R*,4aR*,8aR*,2′S*,3′S*)]-2-[2′-Hydroxy-3′-phenylthiomethyl-4′-aza-5′-oxo-5′-(1″,2″,3″,4″-tetrahydroquinolin-5″-yl)pentyl] decahydroisoquinoline-3-N-t-butylcarboxamide] | 2.53 | 539 | 2310 | 0.877 |  |
| CC(C)(C)NC(=O)[C@@H]1CN(Cc2cccnc2)CCN1C[C@@H](O)[C@H](CSc1ccccc1)NC(=O)c1cccc2c1CCCN2 [Example 33, [3S-(2R*,2′S*,3′S*)]-1-[2′-Hydroxy-3′-phenylthiomethyl-4′-aza-5′-oxo-5′-(1″,2″,3″,4″-tetrahydroquinolin-5″-yl)pentyl]-4-(pyrid-3′″-ylmethyl)piperazine-2N-t-butylcarboxamide] | 3.17 | 39.5 | 200 | 2.69 |  |
| [2S-(2R*,2′S*,3′S*)]-1-[2′-Hydroxy-3′-phenylthiomethyl-4′-aza-5′-oxo-5′-(quinolin-5″-yl)pentyl]-4-(pyrid-3′″-ylmethyl)piperazine-2N-t-butylcarboxamide [Example 34] |  |  |  |  | Fluorescence Assay IC50 (HIV-1 protease; normalized to positive control (=1.0), * = a calculated average): 4.5 ng/mL; Pandex IC50 ng/ml (HIV-1 protease; value as run, 35B value of the same run in footnote or parentheses): 5.4^b ng/ml; IC50 ([1]; read-out: Whole cell IC50 nM, CEM cells, values in parentheses are 35B in same assay): 149 nM; IC90 ([1]; read-out: Whole cell IC90 nM, CEM cells, values in parentheses are 35B in same assay): 564 nM |
